Measurements as given in US9469642B2, “Purinone compounds as kinase inhibitors” (Pharmacyclics LLC, priority 2012, dated 2016).

Key:
Assay type in all cases: biochemical
BTK = biological target: T1, BTK (Homo sapiens, UniProt Q06187); test: Btk in vitro inhibitory activity (kinase assay by one of Methods A, B or C)
T1 construct: purified from insect cells as a full-length construct containing a N-terminal 6×-His tag; His6 (N); host or cells: insect cells (baculovirus Sf21)
Description: (§1) Btk kinase activity is determined using a time-resolved fluorescence resonance energy transfer (TR-FRET) methodology. Measurements are performed in a reaction volume of 50 μL using 96-well assay plates. Kinase enzyme, inhibitor, ATP (at the Km for the kinase), and 1 peptide substrate (Biotin-AVLESEEELYSSARQ-NH2) are incubated in a reaction buffer composed of 20 mM Tris, 50 mM NaCl, MgCl2 (5-25 mM depending on the kinase), MnCl2 (0-10 mM), 1 mM DTT, 0.1 mM EDTA, 0.01% bovine serum albumin, 0.005% Tween-20, and 10% DMSO at pH 7.4 for one hour. The reaction is quenched by the addition of 1.2 equivalents of EDTA (relative to divalent cation) in 25 μL of 1× Lance buffer (Perkin-Elmer). Streptavidin-APC (Perkin-Elmer) and Eu-labeled p-Tyr100 antibody (Perkin-Elmer) in 1× Lance buffer are added in a 25 μL volume to give final concentrations of 100 nM and 2.5 nM, respectively, and the mixture is allowed to incubate for one hour. The TR-FRET signal is measured on a multimode plate reader with an excitation wavelength (λEx) of 330 nm and detection wavelengths (λEm) of 615 and 665 nm. Activity is determined by the ratio of the fluorescence at 665 nm to that at 615 nm. For each compound, enzyme activity is measured at various concentrations of compound. Negative control reactions are performed in the absence of inhibitor in replicates of six, and two no-enzyme controls are used to determine baseline fluorescence levels. Inhibition constants, Ki(app), were obtained using the program BatchKi (Kuzmic et al. (2000), Anal. Biochem. 286:45-50). IC50s are obtained according to the equation: IC50=[…]+[E]total/2;
(§2) For all kinases, [ATP]=Km^ATP, [Btk]total=0.5 nM and [Lck]total=6 nM.
(§3) Kinase activity is measured in vitro using electrophoretic mobility shift assay. The kinase reactions are assembled in a total volume of 25 μL in 384 well plates. The reactions comprise: BTK enzyme (1 nM, N-terminal His6-tagged, recombinant, full-length, human BTK purified from baculovirus Sf21 insect cell system), inhibitor, ATP (16 μM, the apparent Km for the kinase), fluorescently labeled peptide substrate (1 μM, FAM-GEEPLYWSFPAKKK-NH2) in a reaction buffer composed of 100 mM HEPES, pH7.5, 5 mM MgCl2 1 mM DTT, 0.1% bovine serum albumin, 0.01% Triton X-100, and 1% DMSO. The reaction is incubated for one hour and is quenched by the addition of 45 μL of termination buffer (100 mM HEPES, pH7.5, 0.01% Triton X-100, 30 mM EDTA). The terminated reactions are analyzed using 12 channel LabChip® 3000 microfluidic detection instrument (Caliper Life Sciences). The enzymatic phosphorylation of the peptide results in a change in net charge, enabling electrophoretic separation of product from substrate peptide. As substrate and product peptides are separated, two peaks of fluorescence are observed. Change in the relative fluorescence intensity of the substrate and product peaks is the parameter measured, reflecting enzyme activity. In the presence of an inhibitor, the ratio between product and substrate is altered:the signal of the product decreases, while the signal of the substrate increases.
(§4) Activity in each sample is determined as the product to sum ratio (PSR):P/(S+P), where P is the peak height of the product peptide and S is the peak height of the substrate peptide. For each compound, enzyme activity is measured at various concentrations (12 concentrations of compound spaced by 3× dilution intervals). Negative control samples (0%-inhibition in the absence of inhibitor) and positive control samples (100%-inhibition, in the presence of 20 mM EDTA) are assembled in replicates of four and are used to calculate %-inhibition values for each inhibitor at each concentration. Percent inhibition (Pinh) is determined using following equation: […]

EGFR = EGFR (Homo sapiens, UniProt P00533); test: Kinase panel inhibition, EGFR (one of the methods of Example 76a, 76b, 76c)
Sequence of EGFR (P00533 25-1210, species assumed): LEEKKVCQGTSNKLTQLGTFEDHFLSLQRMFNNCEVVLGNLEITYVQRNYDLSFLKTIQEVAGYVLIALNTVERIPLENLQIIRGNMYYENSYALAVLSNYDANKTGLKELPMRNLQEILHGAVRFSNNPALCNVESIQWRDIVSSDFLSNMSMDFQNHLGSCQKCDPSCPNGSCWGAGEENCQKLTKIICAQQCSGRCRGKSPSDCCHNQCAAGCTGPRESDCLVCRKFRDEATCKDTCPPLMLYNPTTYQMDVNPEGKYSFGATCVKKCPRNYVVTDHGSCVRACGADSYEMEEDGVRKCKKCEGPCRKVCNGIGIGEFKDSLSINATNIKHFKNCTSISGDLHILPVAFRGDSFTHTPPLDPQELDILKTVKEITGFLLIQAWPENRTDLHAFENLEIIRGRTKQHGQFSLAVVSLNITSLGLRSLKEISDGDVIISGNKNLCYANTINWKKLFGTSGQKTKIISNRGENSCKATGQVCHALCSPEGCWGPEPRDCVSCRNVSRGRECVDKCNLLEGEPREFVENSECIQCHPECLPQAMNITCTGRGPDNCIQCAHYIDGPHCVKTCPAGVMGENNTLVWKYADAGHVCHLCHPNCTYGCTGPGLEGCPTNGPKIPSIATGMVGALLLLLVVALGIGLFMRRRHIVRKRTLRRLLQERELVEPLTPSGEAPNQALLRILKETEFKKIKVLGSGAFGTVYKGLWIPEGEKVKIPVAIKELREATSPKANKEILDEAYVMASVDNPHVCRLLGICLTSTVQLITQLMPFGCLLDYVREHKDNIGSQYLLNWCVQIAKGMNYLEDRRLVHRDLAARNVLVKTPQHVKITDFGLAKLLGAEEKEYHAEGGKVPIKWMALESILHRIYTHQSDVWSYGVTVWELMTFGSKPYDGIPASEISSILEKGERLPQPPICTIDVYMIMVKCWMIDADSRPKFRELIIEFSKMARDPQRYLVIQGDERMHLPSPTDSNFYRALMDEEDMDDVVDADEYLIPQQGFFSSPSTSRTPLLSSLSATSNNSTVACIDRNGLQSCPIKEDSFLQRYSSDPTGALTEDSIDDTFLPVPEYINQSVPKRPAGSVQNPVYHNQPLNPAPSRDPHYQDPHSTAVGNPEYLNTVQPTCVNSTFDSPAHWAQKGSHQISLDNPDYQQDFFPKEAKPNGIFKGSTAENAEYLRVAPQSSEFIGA
Description: as §1, §2, §3, §4

LCK = LCK (Homo sapiens, UniProt P06239); test: Kinase panel inhibition, LCK (one of the methods of Example 76a, 76b, 76c)
Sequence of LCK (P06239 whole entry, species assumed): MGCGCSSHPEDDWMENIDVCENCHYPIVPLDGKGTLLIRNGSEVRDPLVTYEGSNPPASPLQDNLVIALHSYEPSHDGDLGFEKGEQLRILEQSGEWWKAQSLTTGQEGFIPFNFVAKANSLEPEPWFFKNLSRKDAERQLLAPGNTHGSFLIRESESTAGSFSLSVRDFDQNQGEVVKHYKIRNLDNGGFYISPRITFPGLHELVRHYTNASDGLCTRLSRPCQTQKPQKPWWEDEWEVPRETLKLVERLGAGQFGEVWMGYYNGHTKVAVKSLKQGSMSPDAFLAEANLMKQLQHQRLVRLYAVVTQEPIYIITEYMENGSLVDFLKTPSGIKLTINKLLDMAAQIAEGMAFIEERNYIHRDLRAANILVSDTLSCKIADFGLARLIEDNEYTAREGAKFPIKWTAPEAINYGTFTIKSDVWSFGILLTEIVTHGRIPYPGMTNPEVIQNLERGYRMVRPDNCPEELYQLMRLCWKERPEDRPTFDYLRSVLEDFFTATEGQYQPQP
Description: as §1, §2, §3, §4

T1 sequence (Q06187 whole entry): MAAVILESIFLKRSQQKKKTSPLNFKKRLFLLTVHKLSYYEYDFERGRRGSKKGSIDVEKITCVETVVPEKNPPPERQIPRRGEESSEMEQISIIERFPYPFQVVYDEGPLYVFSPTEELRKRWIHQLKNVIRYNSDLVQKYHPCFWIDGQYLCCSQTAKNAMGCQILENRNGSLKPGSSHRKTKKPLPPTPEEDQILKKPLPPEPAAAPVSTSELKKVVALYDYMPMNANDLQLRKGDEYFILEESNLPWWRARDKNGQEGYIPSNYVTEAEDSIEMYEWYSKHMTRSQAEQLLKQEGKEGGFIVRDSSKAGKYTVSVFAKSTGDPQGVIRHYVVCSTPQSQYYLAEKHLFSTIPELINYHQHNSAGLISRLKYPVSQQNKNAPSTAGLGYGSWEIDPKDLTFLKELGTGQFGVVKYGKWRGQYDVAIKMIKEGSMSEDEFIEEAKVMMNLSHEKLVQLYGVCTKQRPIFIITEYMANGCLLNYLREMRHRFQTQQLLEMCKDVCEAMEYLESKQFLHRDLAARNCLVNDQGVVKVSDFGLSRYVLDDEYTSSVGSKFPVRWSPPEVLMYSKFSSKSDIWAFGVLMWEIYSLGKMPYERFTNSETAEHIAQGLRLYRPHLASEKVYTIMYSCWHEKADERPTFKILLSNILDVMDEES

Structure (SMILES)	IC50 (BTK)	IC50 (EGFR)	IC50 (LCK)
CN(C(=O)/C=C/CN(C)C1CCC1)c1ccc(-n2c(=O)n(-c3ccc(Cl)cc3)c3c(N)ncnc32)cc1 [Compound 50, (E)-N-(4-(6-amino-7-(4-chlorophenyl)-8-oxo-7H-purin-9(8H)-yl)phenyl)-4-(cyclobutyl(methyl)amino)-N-methylbut-2-enamide]	100 to 1000 nM	> 10000 nM	1000 to 10000 nM
Cc1cc(NC(=O)/C=C/CN(C)C2CC2)cc(-n2c(=O)n(-c3ccc(Oc4ccccc4)cc3)c3c(N)ncnc32)c1 [Compound 255, (E)-N-(3-(6-amino-8-oxo-7-(4-phenoxyphenyl)-7H-purin-9(8H)-yl)-5-methylphenyl)-4-(cyclopropyl(methyl)amino)but-2-enamide]	< 100 nM	100 to 1000 nM	100 to 1000 nM
CN(C(=O)/C=C/CN(C)C1CC1)c1cccc(-n2c(=O)n(-c3ccc(Oc4ccccc4)cc3)c3c(N)ncnc32)c1 [Compound 34, (E)-N-(3-(6-amino-8-oxo-7-(4-phenoxyphenyl)-7H-purin-9(8H)-yl)phenyl)-4-(cyclopropyl(methyl)amino)-N-methylbut-2-enamide]	< 100 nM	100 to 1000 nM	1000 to 10000 nM
CN(C(=O)/C=C/CN(C)C1CCC1)c1ccc(-n2c(=O)n(-c3ccc(Oc4ccccc4)cc3)c3c(N)ncnc32)cc1 [Compound 45, (E)-N-(4-(6-amino-8-oxo-7-(4-phenoxyphenyl)-7H-purin-9(8H)-yl)phenyl)-4-(cyclobutyl(methyl)amino)-N-methylbut-2-enamide]	< 100 nM	1000 to 10000 nM	100 to 1000 nM
COc1ccc(-n2c(=O)n(-c3ccc(Oc4cccc(F)c4)cc3)c3c(N)ncnc32)cc1N(C)C(=O)/C=C/CN(C)C1CC1 [Compound 312, (E)-N-(5-(6-amino-7-(4-(3-fluorophenoxy)phenyl)-8-oxo-7H-purin-9(8H)-yl)-2-methoxyphenyl)-4-(cyclopropyl(methyl)amino)-N-methylbut-2-enamide]	< 100 nM	> 10000 nM	> 10000 nM
CN(C(=O)/C=C/c1ccccn1)c1cccc(-n2c(=O)n(-c3ccc(Oc4ccccc4)cc3)c3c(N)ncnc32)c1 [Compound 247, (E)-N-(3-(6-amino-8-oxo-7-(4-phenoxyphenyl)-7H-purin-9(8H)-yl)phenyl)-N-methyl-3-(pyridin-2-yl)acrylamide]	100 to 1000 nM	1000 to 10000 nM	1000 to 10000 nM
CN(C)C/C=C/C(=O)N1CC[C@@H](n2c(=O)n(-c3ccc(Cl)cc3)c3c(N)ncnc32)C1 [Compound 67, (R,E)-6-amino-7-(4-chlorophenyl)-9-(1-(4-(dimethylamino)but-2-enoyl)pyrrolidin-3-yl)-7H-purin-8(9H)-one]	100 to 1000 nM	> 10000 nM	1000 to 10000 nM
COc1cc(-n2c(=O)n(-c3ccc(N(C)C(=O)/C=C/CN(C)C)cc3)c3ncnc(N)c32)ccc1C [Compound 54, (E)-N-(4-(6-amino-7-(3-methoxy-4-methylphenyl)-8-oxo-7H-purin-9(8H)-yl)phenyl)-4-(dimethylamino)-N-methylbut-2-enamide]	< 100 nM	1000 to 10000 nM	1000 to 10000 nM
CN(C/C=C/C(=O)N1CC[C@@H](n2c(=O)n(-c3ccc(Oc4ccccc4)cc3)c3c(N)ncnc32)C1)C1CCC1 [Compound 64, (R,E)-6-amino-9-(1-(4-(cyclobutyl(methyl)amino)but-2-enoyl)pyrrolidin-3-yl)-7-(4-phenoxyphenyl)-7H-purin-8(9H)-one]	< 100 nM	1000 to 10000 nM	100 to 1000 nM
N#C/C(=C\C1CC1)C(=O)N1CCC[C@@H](n2c(=O)n(-c3ccc(Oc4ccccc4)cc3)c3c(N)ncnc32)C1 [Compound 324, (R,E)-2-(3-(6-amino-8-oxo-7-(4-phenoxyphenyl)-7H-purin-9(8H)-yl)piperidine-1-carbonyl)-3-cyclopropylacrylonitrile]	< 100 nM	100 to 1000 nM	100 to 1000 nM
Cc1ccc(N(C)C(=O)/C=C/CN(C)C2CC2)cc1-n1c(=O)n(-c2ccc(Oc3ccccc3)cc2)c2c(N)ncnc21 [Compound 191, (E)-N-(3-(6-amino-8-oxo-7-(4-phenoxyphenyl)-7H-purin-9(8H)-yl)-4-methylphenyl)-4-(cyclopropyl(methyl)amino)-N-methylbut-2-enamide]	100 to 1000 nM	> 10000 nM	> 10000 nM

Continued, values first:

IC50 (BTK)	IC50 (EGFR)	IC50 (LCK)	Structure (SMILES)
< 100 nM	1000 to 10000 nM	100 to 1000 nM	CN(C)C/C=C/C(=O)N(C)c1ccc(-n2c(=O)n(-c3ccc(Oc4ccccc4)cc3)c3c(N)ncnc32)cc1 [Compound 43, (E)-N-(4-(6-amino-8-oxo-7-(4-phenoxyphenyl)-7H-purin-9(8H)-yl)phenyl)-4-(dimethylamino)-N-methylbut-2-enamide]
< 100 nM	1000 to 10000 nM	1000 to 10000 nM	COc1ccc(-n2c(=O)n(-c3ccc(Oc4ccccc4)cc3)c3c(N)ncnc32)cc1N(C)C(=O)/C=C/CN(C)C1CC1 [Compound 171, (E)-N-(5-(6-amino-8-oxo-7-(4-phenoxyphenyl)-7H-purin-9(8H)-yl)-2-methoxyphenyl)-4-(cyclopropyl(methyl)amino)-N-methylbut-2-enamide]
< 100 nM	1000 to 10000 nM	1000 to 10000 nM	CN(C(=O)/C=C/CN(C)[C@H]1CCOC1)c1cccc(-n2c(=O)n(-c3ccc(Oc4cccc(F)c4)cc3)c3c(N)ncnc32)c1 [Compound 309, (S,E)-N-(3-(6-amino-7-(4-(3-fluorophenoxy)phenyl)-8-oxo-7H-purin-9(8H)-yl)phenyl)-N-methyl-4-(methyl(tetrahydrofuran-3-yl)amino)but-2-enamide]
< 100 nM	1000 to 10000 nM	1000 to 10000 nM	Cc1cc(Oc2ccccc2)ccc1-n1c(=O)n(-c2cccc(N(C)C(=O)/C=C/CN(C)C3CC3)c2)c2ncnc(N)c21 [Compound 290, (E)-N-(3-(6-amino-7-(2-methyl-4-phenoxyphenyl)-8-oxo-7H-purin-9(8H)-yl)phenyl)-4-(cyclopropyl(methyl)amino)-N-methylbut-2-enamide]
< 100 nM	< 100 nM	100 to 1000 nM	CNC/C=C/C(=O)Nc1cccc(-n2c(=O)n(-c3ccc(Oc4ccccc4)cc3)c3c(N)ncnc32)c1 [Compound 329, (E)-N-(3-(6-amino-8-oxo-7-(4-phenoxyphenyl)-7H-purin-9(8H)-yl)phenyl)-4-(methylamino)but-2-enamide]
< 100 nM	100 to 1000 nM	1000 to 10000 nM	Cc1cc(N(C)C(=O)/C=C/CN(C)C2CC2)cc(-n2c(=O)n(-c3ccc(Oc4ccccc4)cc3)c3c(N)ncnc32)c1 [Compound 211, (E)-N-(3-(6-amino-8-oxo-7-(4-phenoxyphenyl)-7H-purin-9(8H)-yl)-5-methylphenyl)-4-(cyclopropyl(methyl)amino)-N-methylbut-2-enamide]
< 100 nM	< 100 nM	< 100 nM	C=CC(=O)Nc1cccc(-n2c(=O)n(-c3ccc(Oc4ccccc4)cc3)c3c(N)ncnc32)c1 [Compound 11, N-(3-(6-amino-8-oxo-7-(4-phenoxyphenyl)-7H-purin-9(8H)-yl)phenyl)acrylamide]
< 100 nM	< 100 nM	100 to 1000 nM	CN(C/C=C/C(=O)Nc1cccc(-n2c(=O)n(-c3ccc(Oc4ccccc4)cc3)c3c(N)ncnc32)c1)C1CC1 [Compound 9, (E)-N-(3-(6-amino-8-oxo-7-(4-phenoxyphenyl)-7H-purin-9(8H)-yl)phenyl)-4-(cyclopropyl(methyl)amino)but-2-enamide]
